Where a name gives a salt, the structure may show the parent alone. Read-outs that look alike come from different tables or passages of the source.

This test deals with T1, human mAChR M4 (Homo sapiens, UniProt P08173).
T1 sequence (P08173 1-479): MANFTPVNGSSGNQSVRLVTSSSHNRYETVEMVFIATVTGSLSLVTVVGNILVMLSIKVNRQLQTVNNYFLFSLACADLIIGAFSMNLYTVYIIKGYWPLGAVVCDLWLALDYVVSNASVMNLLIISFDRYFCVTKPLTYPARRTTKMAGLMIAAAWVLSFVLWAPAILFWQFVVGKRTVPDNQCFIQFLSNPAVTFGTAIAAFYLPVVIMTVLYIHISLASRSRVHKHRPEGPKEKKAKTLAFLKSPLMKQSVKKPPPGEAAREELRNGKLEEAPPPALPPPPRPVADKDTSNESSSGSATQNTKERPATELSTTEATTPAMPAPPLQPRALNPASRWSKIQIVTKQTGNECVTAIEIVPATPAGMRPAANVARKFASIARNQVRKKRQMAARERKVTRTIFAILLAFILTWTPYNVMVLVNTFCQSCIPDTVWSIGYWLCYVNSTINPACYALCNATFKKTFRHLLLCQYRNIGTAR
In words: mAChR M4 cell-based functional assay (calcium flux), human M4. To be noted: for EC50: calcium flux. On the technique in general: Calcium assays in cells follow changes in intracellular calcium, usually with a dye or a luminescent sensor.

The mark [1] stands for this setting: Human M4 EC50 (nM), Table 10, PAM activity with EC20 acetylcholine.
Setting [2] is: Table 10, % ACh maximum at 30 μM.
The mark [3] stands for this setting: Human M4 EC50 (nM), Table 11, PAM activity with EC20 acetylcholine.
Where [4] appears, read: Table 11, % ACh maximum at 30 μM.
The mark [5] stands for this setting: Human M4, % ACh maximum at 30 μM.
[6] abbreviates: Human M4 EC50, CHO-K1 hM4-Gqi5 cells, increase in EC20 acetylcholine response.

In the case of `Cc1nnc2sc3c(N4CCC(C(=O)Nc5ccc(C(F)(F)F)cc5)C4)ncnc3c2c1C` (stereo not shown) [Compound 173, 1-(3,4-dimethylpyrimido [4′,5′:4,5]thieno[2,3-c]pyridazin-8-yl)-N-[4-(trifluoromethyl)phenyl] pyrrolidine-3-carboxamide], the EC50 (commonly the concentration giving half of the maximal effect) under setting [1] is 3310 nM. Moreover, the Emax (usually the greatest response seen or fitted, relative to the assay's reference) under setting [2] amounted to 24.4%.
For `Cc1cc(C)c2c(n1)sc1c(N3CCCC3)ncnc12` [Compound 199, 7,9-dimethyl-4-pyrrolidin-1-yl-pyrido[3′,2′:4,5] thieno[3,2-d]pyrimidine], under setting [1], the 50% effective concentration (EC50) was 277 nM. Further, the Emax under setting [2] was determined as 67.3%.
`Cc1cc(O[C@@H]2CCN(c3ncnc4c3sc3nnc(C)c(C)c34)C2)ccn1` [Compound 338, 3,4-dimethyl-8-[(3R)-3-[(2-methyl-4-pyridyl)oxy]pyrrolidin-1-yl] pyrimido[4′,5′:4,5] thieno[2,3-c]pyridazine]: under setting [3], the EC50 came out at 73.4 nM. Also, under setting [4], the Emax worked out at 74.6%.
For `Cc1nnc2sc3c(NCc4ccc(C(C)(O)C(F)(F)F)cc4)ncnc3c2c1C` (stereo not shown) [Compound 113, 2-[4-[[(3,4-dimethylpyrimido [4′,5′:4,5]thieno[2,3-c]pyridazin-8-yl)amino]methyl]phenyl]-1,1,1-trifluoro-propan-2-ol], under setting [2], the Emax worked out at 73.8%.
Take `Cc1cc(O[C@H]2C[C@@H](C)N(c3ncnc4c3sc3nnc(C)c(C)c34)C2)ccn1` [Compound 365, 3,4-dimethyl-8-[(2R,4S)-2-methyl-4-[(2-methyl-4-pyridyl)oxy]pyrrolidin-1-yl]pyrimido [4′,5′:4,5]thieno[2,3-c] pyridazine dihydrochloride]: under setting [3], the EC50 turned out to be 551 nM. For the same compound, the Emax under setting [4] amounted to 65.2%.
`Cc1cc(C)c2c(n1)sc1c(N3CCC3)ncnc12` [Compound 197, 4-(azetidin-1-yl)-7,9-dimethyl-pyrido [3′,2′:4,5]thieno[3,2-d] pyrimidine]: the EC50 under setting [1] was found to be 172 nM. For the same compound, the Emax under setting [2] amounted to 58.7%.
The corresponding values for `COc1c(F)cc(CNc2ncnc3c2oc2nnc(C)c(C)c23)cc1F` [Compound 311, N-[(3,5-difluoro-4-methoxy-phenyl)methyl]-3,4-dimethyl-pyrimido[4′,5′:4,5] furo[2,3-c]pyridazin-8-amine] are 378 nM and 51%.
Regarding `Cc1nnc2sc3c(NCc4ccc(C5(O)CCC5)cc4)ncnc3c2c1C` [Compound 114, 1-[4-[[(3,4-dimethylpyrimido [4′,5′:4,5]thieno[2,3-c]pyridazin-8-yl)amino]methyl]phenyl]cyclobutanol], the concentration giving a half-maximal response (EC50) under setting [1] was determined as 127 nM. For the same compound, the Emax under setting [2] was found to be 69.4%.
The corresponding values for `Cc1nnc2sc3c(N4Cc5ccc(C(C)(C)O)cc5C4)ncnc3c2c1C` [Compound 142, 2-[2-(3,4-dimethylpyrimido [4′,5′:4,5]thieno[2,3-c]pyridazin-8-yl)isoindolin-5-yl]propan-2-ol; 2,2,2-trifluoroacetic acid] are 1250 nM and 53.6%.
`Cc1nnc2sc3c(N4CC[C@@H](Oc5cccnc5)C4)ncnc3c2c1C` [Compound 340, 3,4-dimethyl-8-[(3R)-3-(3-pyridyloxy)pyrrolidin-1-yl]pyrimido[4′,5′:4,5] thieno[2,3-c]pyridazine]: the EC50 under setting [3] was determined as 101 nM. Besides, the Emax under setting [4] is 72.9%.
The matching figures for `Cc1nnc2sc3c(N4CCC(Oc5ccnc(Cl)c5)CC4)ncnc3c2c1C` [Compound 346, 8-[4-[(2-chloro-4-pyridyl)oxy]-1-piperidyl]-3,4-dimethyl-pyrimido [4′,5′:4,5]thieno[2,3-c] pyridazine]: 749 nM and 56.8%.
Consider `Cc1nnc2oc3c(NCc4ccc(C(C)(C)O)cc4)ncnc3c2c1C` [Compound 299, 2-[4-[[(3,4-dimethylpyrimido [4′,5′:4,5]furo[2,3-c]pyridazin-8-yl)amino]methyl]phenyl]propan-2-ol], for which, under setting [1], the EC50 was 2290 nM. For the same compound, the Emax under setting [2] worked out at 61.2%.
As to `CCNc1ncnc2c1oc1nc(C)c(Cl)c(C)c12` [Compound 47, 8-chloro-N-ethyl-7,9-dimethyl-pyrido[3′,2′:4,5]furo[3,2-d]pyrimidin-4-amine hydrochloride], the Emax under setting [5] was determined as 40.6%. Besides, the EC50 under setting [6] is 1250 nM.
Regarding `Cc1nnc2oc3c(NC4CN(c5ncc(F)cn5)C4)ncnc3c2c1C` [Compound 63, N-[1-(5-Fluoropyrimidin-2-yl)azetidin-3-yl]-3,4-dimethyl-pyrimido[4′,5′:4,5]furo[2,3-c]pyridazin-8-amine], the Emax under setting [5] turned out to be 36.8%.
As to `CNc1ncnc2c1oc1nc(C)c(Cl)c(C)c12` [Compound 44, 8-chloro-N,7,9-trimethyl-pyrido[3′,2′:4,5]furo[3,2-d]pyrimidin-4-amine hydrochloride], the Emax under setting [5] came out at 39.8%. For the same compound, the EC50 under setting [6] was 1690 nM.
As to `Cc1nc2oc3c(NCc4ccc(S(C)(=O)=O)cc4)ncnc3c2c(C)c1Cl` [Compound 248, 8-chloro-7,9-dimethyl-N-[(4-methylsulfonylphenyl)methyl]pyrido[3′,2′:4,5] furo[3,2-d]pyrimidin-4-amine hydrochloride], the EC50 under setting [1] is 1250 nM. In addition, under setting [2], the Emax was determined as 45.5%.
Consider `Cc1nnc2sc3c(NCc4ccc(C(=O)NC5CCC5)c(Cl)c4)ncnc3c2c1C` [Compound 316, 2-chloro-N-cyclobutyl-4-[[(3,4-dimethylpyrimido [4′,5′:4,5]thieno[2,3-c]pyridazin-8-yl)amino]methyl]benzamide], for which the EC50 under setting [3] was 216 nM. In addition, the maximal response (Emax) under setting [4] was found to be 83.8%.
With `Cc1cc(C)c2c(n1)oc1c(NC3CC3)ncnc12` [Compound 62, N-cyclopropyl-7,9-dimethyl-pyrido[3′,2′:4,5]furo[3,2-d]pyrimidin-4-amine hydrochloride], the Emax is 63.9%.
In the case of `Cc1c(Cl)cnc2sc3c(N4CC(F)(F)C4)ncnc3c12` [Compound 223, 8-chloro-4-(3,3-difluoroazetidin-1-yl)-9-methyl-pyrido [3′,2′:4,5]thieno[3,2-d] pyrimidine], the EC50 under setting [1] is 931 nM. Further, the Emax under setting [2] was found to be 44%.
The corresponding values for `Cc1nc2sc3c(NCc4cccc(C5(O)CCC5)c4)ncnc3c2c(C)c1Cl` [Compound 277, 1-[3-[[(8-chloro-7,9-dimethyl-pyrido [3′,2′:4,5]thieno[3,2-d]pyrimidin-4-yl)amino]methyl]phenyl]cyclobutanol] are 2320 nM and 70.5%.
With `Cc1nnc2sc3c(N4CC(C)(O)C4)ncnc3c2c1C` [Compound 34, 1-(3,4-dimethylpyrimido [4′,5′:4,5]thieno[2,3-c]pyridazin-8-yl)-3-methylazetidin-3-ol], under setting [5], the maximal response (Emax) came to 59%. The EC50 under setting [6] was 660 nM.
On to `Cc1nnc2sc3c(NCc4ccc(C(=O)NC(C)C5(CO)CC5)c(Cl)c4)ncnc3c2c1C` (stereo not shown) [Compound 323, 2-chloro-4-[[(3,4-dimethylpyrimido [4′,5′:4,5]thieno[2,3-c]pyridazin-8-yl)amino]methyl]-N-[1-[1-(hydroxymethyl)cyclopropyl]ethyl]benzamide], for which the EC50 under setting [3] came to 449 nM. The Emax under setting [4] was 76.3%.
As for `Cc1nnc2sc3c(NC4CCN(c5cccc(F)c5F)C4)ncnc3c2c1C` (stereo not shown) [Compound 81, N-[1-(2,3-difluorophenyl)pyrrolidin-3-yl]-3,4-dimethyl-pyrimido [4′,5′:4,5]thieno[2,3-c] pyridazin-8-amine], the 50% effective concentration (EC50) under setting [1] was 3120 nM. Under setting [2], the Emax turned out to be 62.6%.
As for `Cc1nnc2sc3c(NCc4ccc(-c5ccnn5C)cc4)ncnc3c2c1C` [Compound 193, 3,4-dimethyl-N-[[4-(2-methylpyrazol-3-yl)phenyl]methyl]pyrimido [4′,5′:4,5]thieno[2,3-c] pyridazin-8-amine], the EC50 under setting [1] was 439 nM. Besides, under setting [2], the Emax turned out to be 82%.
The corresponding values for `Cc1nnc2sc3c(NC4CC5(C4)CN(c4ncc(Cl)cc4Cl)C5)ncnc3c2c1C` [Compound 162, N-[2-(3,5-dichloro-2-pyridyl)-2-azaspiro[3.3]heptan-6-yl]-3,4-dimethyl-pyrimido[4′,5′:4,5]thieno [2,3-c]pyridazin-8-amine] are 5630 nM and 48.3%.
Regarding `Cc1nnc2sc3c(NCc4ccc(C(=O)NC5CC5(C)C)c(Cl)c4)ncnc3c2c1C` (stereo not shown) [Compound 319, 2-chloro-N-(2,2-dimethylcyclopropyl)-4-[[(3,4-dimethylpyrimido [4′,5′:4,5]thieno[2,3-c]pyridazin-8-yl)amino]methyl]benzamide], the EC50 under setting [3] was determined as 544 nM. Besides, the Emax under setting [4] was 75.6%.
Consider `Cc1c(Cl)cnc2sc3c(NC4CCC4)ncnc3c12` [Compound 228, 8-chloro-N-cyclobutyl-9-methyl-pyrido [3′,2′:4,5]thieno[3,2-d] pyrimidin-4-amine], for which the EC50 under setting [1] turned out to be 3230 nM. Besides, the Emax under setting [2] turned out to be 70%.
Take `Cc1nnc2sc3c(NCc4ccc(C(=O)NC5CCCCC5)cc4)ncnc3c2c1C` [Compound 159, N-cyclohexyl-4-[[(3,4-dimethylpyrimido [4′,5′:4,5]thieno[2,3-c]pyridazin-8-yl)amino]methyl]benzamide]: under setting [1], the EC50 came to 380 nM. Also, the Emax under setting [2] came out at 84.8%.
The corresponding values for `Cc1nnc2sc3c(N4CC(N)C4)ncnc3c2c1C` [Compound 95, 1-(3,4-dimethylpyrimido [4′,5′:4,5]thieno[2,3-c]pyridazin-8-yl) azetidin-3-amine] are 395 nM and 61.4%.

Source of the values: patent US10239887B2, “Positive allosteric modulators of the muscarinic acetylcholine receptor M4” (Vanderbilt University, priority 2016, dated 2019).
